Values of other authors as cited in patent US12233048B2 (Société des Produits Nestlé S.A., priority 2022, dated 2025).

- time after ingestion for blood plasma concentration to reach its peak (after ingestion): more than 30 minutes
- bioavailability (exogenous melatonin): poor and highly variable
Compound: COc1ccc2[nH]cc(CCNC(C)=O)c2c1 [melatonin, N-acetyl-5-methoxytryptamine]
